pIC50: −log10 of the molar value.

The target of one experiment is T1, Mcl-1/Bim interaction, recombinant human Mcl-1 (171-327) (Homo sapiens, UniProt Q07820).
T1 construct: made in house
T1 sequence (Q07820 171-327): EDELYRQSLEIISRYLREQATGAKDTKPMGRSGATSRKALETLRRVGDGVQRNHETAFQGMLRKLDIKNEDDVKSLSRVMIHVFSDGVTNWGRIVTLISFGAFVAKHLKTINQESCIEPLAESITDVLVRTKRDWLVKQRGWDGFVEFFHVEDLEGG
As to the kind of experiment: Cell free Mcl-1: Bim Affinity Assay (Mcl-1 HTRF). To be noted: TR-FRET, 0.1 nM Mcl-1 (171-327), 0.05 nM biotin-Bim (51-76). The class given is binding. On the procedure: Cell free Mcl-1: Bim Affinity Assay (Mcl-1 HTRF)
The inhibition of the Mcl-1/Bim interaction was measured using a time-resolved fluorescence resonance energy transfer (TR-FRET) assay. […] A biotinylated peptide derived from human Bim (residues 51-76) was purchased from CPC Scientific (San Jose, CA). The TR-FRET assay was conducted in a 384-well white OptiPlatem (PerkinElmer, Waltham, MA) in a total volume of 40 μL. […] The reaction plates were further incubated overnight and then were read on an Envision® multimode reader (PerkinElmer). […] The IC50 values of test compounds were determined from duplicate data by analyzing competition curves using a four-parameter sigmoidal model in GraphPad Prism (GraphPad Software, San Diego, CA) or in Genedata Screener® (Genedata, Basel, Switzerland).
A general note: Time-resolved FRET reads energy transfer from a long-lived donor to a nearby acceptor.
In general, pIC50 refers to −log10 of the IC50, conventionally taken in molar units. Regarding `O=C1NS(=O)(=O)[C@@H](C(F)(F)F)CCCC[C@H](O)[C@@H]2CC[C@H]2CN2C[C@@]3(CCCc4cc(Cl)ccc43)COc3ccc1cc32` (single isomer, unassigned) [Example 433], the pIC50 is 8.49. Regarding `COCCOC[C@@H]1CC/C=C/[C@H](O)[C@@H]2CC[C@H]2CN2C[C@@]3(CCCc4cc(Cl)ccc43)COc3ccc(cc32)C(=O)NS1(=O)=O` (single isomer, unassigned) [Example 448], the pIC50 was 9.02. On the same count and under the same terms, the figure for `CC[C@@H]1CC/C=C/[C@@H](OC)[C@@H]2CC[C@H]2CN2C[C@@]3(CCCc4cc(Cl)ccc43)COc3ccc(cc32)C(=O)NS1(=O)=O` [Example 1093, (1S,3′R,6′R,7′R,8′E,12′R)-6-chloro-7′-methoxy-12′-ethyl-3,4-dihydro-2H,15′H-spiro [naphthalene-1,22′-[20]oxa[13]thia[1,14]diazatetracyclo[14.7.2.0^3,6.0^19,24]pentacosa [8,16,18,24]tetraen]-15′-one 13′,13′-dioxide] is 8.59. Same read-out and setting: the figure for `O=C1NS(=O)(=O)[C@@H]2CC[C@H]2CCC[C@H](O)[C@@H]2CC[C@H]2CN2C[C@@]3(CCCc4cc(Cl)ccc43)COc3ccc1cc32` [Example 91, (1S,3′R,6′R,7′S,11′R,14′R)-6-chloro-7′-hydroxy-3,4-dihydro-2H,17′H-spiro[naphthalene-1,24′-[22]oxa[15]thia[1,16]diazapentacyclo[16.7.2.0^3,6.0^11,14.0^21,26]heptacosa[18,20,26]trien]-17′-one 15′,15′-dioxide] is 8.51; for `O=C1NS(=O)(=O)CC[C@H](CO)/C=C/[C@H](O)[C@@H]2CC[C@H]2CN2C[C@@]3(CCCc4cc(Cl)ccc43)COc3ccc1cc32` [Example 201, (1S,3′R,6′R,7′S,8′E,10′S)-6-chloro-7′-hydroxy-10′-(hydroxymethyl)-3,4-dihydro-2H,15′H-spiro[naphthalene-1,22′-[20]oxa[13]thia[1,14]diazatetracyclo[14.7.2.0^3,6.0^19,24]pentacosa [8,16,18,24]tetraen]-15′-one 13′,13′-dioxide] it is 8.57; for `C/C=C/C1CC(=O)[C@@H]2CC[C@H]2CN2C[C@@]3(CCCc4cc(Cl)ccc43)COc3ccc(cc32)C(=O)NS(=O)(=O)[C@H](C)[C@@H](C)C1` (stereo in doubt) [Example 350, (1S,3′R,6′R,9′R,11′S,12′R)-6-chloro-11′,12′-dimethyl-9′-((1E)-1-propen-1-yl)-3,4-dihydro-2H,7′H,15′H-spiro[naphthalene-1,22′-[20]oxa[13]thia[1,14]diazatetracyclo[14.7.2.0^3,6.0^19,24]pentacosa [16,18,24]triene]-7′,15′-dione 13′,13′-dioxide] it is 8.43.

On to `C[C@@H]1CC/C=C/[C@H](O)[C@]2(C)CC[C@H]2CN2C[C@@]3(CCCc4cc(Cl)ccc43)COc3ccc(cc32)C(=O)NS1(=O)=O` (single isomer, unassigned) [Example 116], for which the pIC50 was 9.07.

Turning to `CO[C@@H]1/C=C/CCCS(=O)(=O)NC(=O)c2ccc3c(c2)N(C[C@@H]2CC[C@H]21)C[C@@]1(CCCc2cc(Cl)ccc21)CO3` [Example 1091, (1S,3′R,6′R,7′R,8′E)-6-chloro-7′-methoxy-3,4-dihydro-2H,15′H-spiro [naphthalene-1,22′-[20]oxa[13]thia[1,14]diazatetracyclo[14.7.2.0^3,6.0^19,24]pentacosa [8,16,18,24]tetraen]-15′-one 13′,13′-dioxide], the pIC50 is 8.43. Same read-out and setting: the figure for `O=C1NS(=O)(=O)C(CO)CCC=CCC2CCC2CN2CC3(CCCc4cc(Cl)ccc43)COc3ccc1cc32` (single isomer, unassigned) [Example 450] is 8.17. In the case of `CS(=O)(=O)CCO[C@@H]1/C=C/CCCS(=O)(=O)NC(=O)c2ccc3c(c2)N(C[C@@H]2CC[C@H]21)C[C@@]1(CCCc2cc(Cl)ccc21)CO3` [Example 1095, (1S,3′R,6′R,7′R,8′E)-6-chloro-7′-(2-(methylsulfonyl)ethoxy)-3,4-dihydro-2H,15′H-spiro [naphthalene-1,22′-[20]oxa[13]thia[1,14]diazatetracyclo[14.7.2.0^3,6.0^19,24]pentacosa [8,16,18,24]tetraen]-15′-one 13′,13′-dioxide], the negative logarithm of the IC50 (pIC50) was 8.89. On the same count and under the same terms, the figure for `CC[C@@H]1CC/C=C/[C@H](NC(=O)C(C)C)[C@@H]2CC[C@H]2CN2C[C@@]3(CCCc4cc(Cl)ccc43)COc3ccc(cc32)C(=O)NS1(=O)=O` [Example 1077, N-((1S,3′R,6′R,7′S,8′E,12′R)-6-chloro-12′-ethyl-13′,13′-dioxido-15′-oxo-3,4-dihydro-2H-spiro[naphthalene-1,22′-[20]oxa[13]thia[1,14]diazatetracyclo[14.7.2.0^3,6.0^19,24]pentacosa [8,16,18,24]tetraen]-7′-yl)-2-methylpropanamide] is 8.46. On the same count and under the same terms, next, `O=C1NS(=O)(=O)C[C@H](CO)C/C=C/[C@@H](O)[C@@H]2CC[C@H]2CN2C[C@@]3(CCCc4cc(Cl)ccc43)COc3ccc1cc32` (single isomer, unassigned) [Example 1090]: 8.56.

Still in this experiment, the particulars now being: cell free Mcl-1:Bim TR-FRET, recombinant human Mcl-1 (171-327).
Consider `O=C1NS(=O)(=O)C/C=C/CC[C@H](O)[C@@H]2CC[C@H]2CN2C[C@@]3(CCCc4cc(Cl)ccc43)COc3ccc1cc32` [Example 808, (1S,3′R,6′R,7′S,10′E)-6-chloro-7′-hydroxy-3,4-dihydro-2H,15′H-spiro[naphthalene-1,22′-[20]oxa[13]thia[1,14]diazatetracyclo[14.7.2.0^3,6.0^19,24]pentacosa [10,16,18,24]tetraen]-15′-one 13′,13′-dioxide], for which the negative-log IC50 (pIC50) was 8.81. As for `C[C@@H](O)C[C@H]1CC/C=C/[C@H](O)[C@@H]2CC[C@H]2CN2C[C@@]3(CCCc4cc(Cl)ccc43)COc3ccc(cc32)C(=O)NS1(=O)=O` (single isomer, unassigned) [Example 539], the pIC50 was 8.56.

For the compound `CS(=O)(=O)N[C@@H]1CCCCCS(=O)(=O)NC(=O)c2ccc3c(c2)N(C[C@@H]2CC[C@H]21)C[C@@]1(CCCc2cc(Cl)ccc21)CO3` (single isomer, unassigned) [Example 938], the negative logarithm of the IC50 (pIC50) is 8.23. Still for that read-out and setting: the figure for `CN(C(=O)C1CC1)C1CCCCCS(=O)(=O)NC(=O)c2ccc3c(c2)N(CC2CCC21)CC1(CCCc2cc(Cl)ccc21)CO3` (single isomer, unassigned) [Example 942] is 7.44. Same read-out and setting: the figure for `O=C1NS(=O)(=O)CCCCC[C@@H](CO)[C@@H]2CC[C@H]2CN2C[C@@]3(CCCc4cc(Cl)ccc43)COc3ccc1cc32` (single isomer, unassigned) [Example 906, (1S,3′R,6′R,7′R)-6-chloro-7′-(hydroxymethyl)-3,4-dihydro-2H,15′H-spiro[naphthalene-1,22′-[20]oxa[13]thia[1,14]diazatetracyclo[14.7.2.0^3,6.0^19,24]pentacosa [16,18,24]trien]-15′-one 13′,13′-dioxide or (1S,3′R,6′R,7′)-6-chloro-7′-(hydroxymethyl)-3,4-dihydro-2H,15′H-spiro[naphthalene-1,22′-[20]oxa[13]thia[1,14]diazatetracyclo[14.7.2.0^3,6.0^19,24]pentacosa [16,18,24]trien]-15′-one 13′,13′-dioxide] is 8.04; for `COC1C=CCC(OC)C(C)S(=O)(=O)NC(=O)c2ccc3c(c2)N(CC2CCC21)CC1(CCCc2cc(Cl)ccc21)CO3` (single isomer, unassigned) [Example 717] it is 7.54. The same measure, in the same setting: next, `CC[C@H]1CC/C=C/[C@H](O)[C@@H]2CC[C@H]2CN2C[C@@]3(CCc4cc(Cl)ccc43)COc3ccc(cc32)C(=O)NS1(=O)=O` (single isomer, unassigned) [Example 699]: 9.19. As to `O=C1NS(=O)(=O)CCC/C=C/C[C@H](O)[C@@H]2CC[C@H]2CN2C[C@@]3(CCCc4cc(Cl)ccc43)COc3ccc1cc32` (single isomer, unassigned) [Example 833, (1S,3′R,6′R,7′S,9′E)-6-chloro-7′-hydroxy-3,4-dihydro-2H,16′H-spiro[naphthalene-1,23′-[21]oxa[14]thia[1,15]diazatetracyclo[15.7.2.0^3,6.0^20,25]hexacosa[9,17,19,25]tetraen]-16′-one 14′,14′-dioxide or (1S,3′R,6′R,7′S,9′Z)-6-chloro-7′-hydroxy-3,4-dihydro-2H,16′H-spiro[naphthalene-1,23′-[21]oxa[14]thia[1,15]diazatetracyclo[15.7.2.0^3,6.0^20,25]hexacosa [9,17,19,25]tetraen]-16′-one 14′,14′-dioxide], the negative-log IC50 (pIC50) is 8.29. On the same count and under the same terms, next, `O=C1NS(=O)(=O)CCC[C@]2(O)CCO[C@H](C2)[C@@H]2CC[C@H]2CN2C[C@@]3(CCCc4cc(Cl)ccc43)COc3ccc1cc32` (single isomer, unassigned) [Example 924]: 8.29; `O=C1NS(=O)(=O)CCOC[C@@H](O)[C@@H]2CC[C@H]2CN2C[C@@]3(CCCc4cc(Cl)ccc43)COc3ccc1cc32` (single isomer, unassigned) [Example 866, (3R,6R,7S,21S)-6′-chloro-7-hydroxy-3′,4′-dihydro-2′H,14H-spiro[9,19-dioxa-12-thia-1,13-diazatetracyclo[13.7.2.0^3,6.0^18,23]tetracosa-15,17,23-triene-21,1′-naphthalen]-14-one 12,12-dioxide or (3R,6R,7R,21S)-6′-chloro-7-hydroxy-3′,4′-dihydro-2′H,14H-spiro[9,19-dioxa-12-thia-1,13-diazatetracyclo[13.7.2.0^3,6.0^18,23]tetracosa-15,17,23-triene-21,1′-naphthalen]-14-one 12,12-dioxide]: 8.02.
